Experiments:
MKN45 cells = test: MKN45 cell proliferation assay (Cell-Titer-Glo, 120 h); format: cell-based; details: for EC50: Homo sapiens, MKN-45, 120 h, Cell-Titer-Glo, growth inhibition, read-out: MKN45 Cell Prolif. 120 hr (EC50); for MKN45 Cell Prolif. 120 hr (Ymin-Obs): minimal percent of DMSO control observed in the concentrations tested
Summary of the method: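 Cells seeded at 400/well onto pre-printed 10-point half-log dilutions (top 1 or 10 uM, 0.1% DMSO final), in triplicate, and grown 120 h at 37 C. Viability by Cell-Titer-Glo luminescence, blank-subtracted and normalised to DMSO; EC50 from four-parameter logistic fit, with observed minimal % of control recorded as Ymin-obs.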

WEE1 = molecular target: T1, WEE1 (Homo sapiens, UniProt P30291+Q96SW2); test: WEE1-ePL degradation assay (LentiX-WEE1-ePL-GSPT1-ND cells, InCELL Hunter luminescence, 4 h); format: cell-based; details: 293T-LentiX WEE1-ePL cells; for 293T-LentiX WEE1-ePL Degradation 4 hr (Ymin): lower limit of the fit (0 = luciferase inhibitor, Ymax = DMSO control); for DC50: read-out: 293T-LentiX WEE1-ePL Degradation 4 hr (EC50)
T1 construct: C-terminal ePL-tagged (DiscoverX, Fremont, CA) full-length WEE1 expression construct; expressed in transfected cells; host or cells: LentiX-HEK293T (Invitrogen), lentiviral transduction; co-expressing GSPT1-GN (G576N, lacking the first 158 amino acids)
Summary of the method: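 Degradation EC50 was fitted by a four-parameter logistic model, with the upper limit taken from DMSO wells. Luminescence was read with InCELL Hunter reagent after 30 min at room temperature, following a 4 h, 37° C exposure of 2500 cells/well. Cells were LentiX-HEK293T carrying ePL-tagged full-length WEE1, dosed in 10 points (3-fold) from 1 or 10 uM.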

| Compound | EC50 (MKN45 cells) | MKN45 Cell Prolif. 120 hr (Ymin-Obs) (MKN45 cells) | 293T-LentiX WEE1-ePL Degradation 4 hr (Ymin) (WEE1) | DC50 (WEE1) |
| --- | --- | --- | --- | --- |
| Cc1ccc2cc(CN3CC[C@H](Oc4ccc5c(c4)CN(C4CCC(=O)NC4=O)C5=O)C3)ncc2c1 (stereo partly drawn) [3-(5-{[(3S)-1-[(7-methylisoquinolin-3-yl)methyl]pyrrolidin-3-yl]oxy}-1-oxo-2,3-dihydro-1H-isoindol-2-yl)piperidine-2,6-dione] | 70.7 nM | 15.68 | 32.315 | 12.2 nM |
| Cc1ccc2cc(CN3CC[C@H](Oc4ccc5c(c4)CN(C4CCC(=O)NC4=O)C5=O)C3)cc(F)c2n1 (stereo partly drawn) [3-(5-{[(3S)-1-[(8-fluoro-2-methylquinolin-6-yl)methyl]pyrrolidin-3-yl]oxy}-1-oxo-2,3-dihydro-1H-isoindol-2-yl)piperidine-2,6-dione] | 3.2 nM | 7.555 | 25.35 | 1.04 nM |
| O=C1CCC(N2Cc3cc(O[C@H]4CCN(Cc5cc6cccc(F)c6cn5)C4)ccc3C2=O)C(=O)N1 (stereo partly drawn) [3-(5-{[(3S)-1-[(8-fluoroisoquinolin-3-yl)methyl]pyrrolidin-3-yl]oxy}-1-oxo-2,3-dihydro-1H-isoindol-2-yl)piperidine-2,6-dione] | 24.4 nM | 10.49 | 30.295 | 5.32 nM |
| CN1CCCc2cc(CN3CC[C@H](Oc4ccc5c(c4)CN(C4CCC(=O)NC4=O)C5=O)C3)cnc21 (stereo partly drawn) [3-(5-{[(3S)-1-[(8-methyl-5,6,7,8-tetrahydro-1,8-naphthyridin-3-yl)methyl]pyrrolidin-3-yl]oxy}-1-oxo-2,3-dihydro-1H-isoindol-2-yl)piperidine-2,6-dione] | > 10000 nM | 79.28 | 58 | 19.1 nM |
| Cc1cccc2cc(CN3CC[C@H](Oc4ccc5c(c4)CN(C4CCC(=O)NC4=O)C5=O)C3)ncc12 (stereo partly drawn) [3-(5-{[(3S)-1-[(8-methylisoquinolin-3-yl)methyl]pyrrolidin-3-yl]oxy}-1-oxo-2,3-dihydro-1H-isoindol-2-yl)piperidine-2,6-dione] | 118 nM | 19.68 | 32.22 | 6.41 nM |
| O=C1CCC(N2Cc3cc(O[C@H]4CCN(Cc5cc6ccccc6nn5)C4)ccc3C2=O)C(=O)N1 (stereo partly drawn) [3-(5-{[(3S)-1-[(cinnolin-3-yl)methyl]pyrrolidin-3-yl]oxy}-1-oxo-2,3-dihydro-1H-isoindol-2-yl)piperidine-2,6-dione] | 66.3 nM | 8.97 | 26.03 | 12.5 nM |
| O=C1CCC(N2Cc3cc(O[C@H]4CCN(Cc5ccc6nnccc6c5)C4)ccc3C2=O)C(=O)N1 (stereo partly drawn) [3-(5-{[(3S)-1-[(cinnolin-6-yl)methyl]pyrrolidin-3-yl]oxy}-1-oxo-2,3-dihydro-1H-isoindol-2-yl)piperidine-2,6-dione] | 32.8 nM | 8.19 | 26.65 | 12.5 nM |
| O=C1CCC(N2Cc3cc(O[C@H]4CCN(Cc5cc6ccccc6cn5)C4)ccc3C2=O)C(=O)N1 (stereo partly drawn) [3-(5-{[(3S)-1-[(isoquinolin-3-yl)methyl]pyrrolidin-3-yl]oxy}-1-oxo-2,3-dihydro-1H-isoindol-2-yl)piperidine-2,6-dione] | 44.1 nM | 13.47 | 30.345 | 4.05 nM |
| O=C1CCC(N2Cc3cc(O[C@H]4CCN(Cc5ccc6cnccc6c5)C4)ccc3C2=O)C(=O)N1 (stereo partly drawn) [3-(5-{[(3S)-1-[(isoquinolin-6-yl)methyl]pyrrolidin-3-yl]oxy}-1-oxo-2,3-dihydro-1H-isoindol-2-yl)piperidine-2,6-dione] | 52.7 nM | 15.77 | 25.71 | 17 nM |
